# Experimental data published in patent US7135466B2 (Kirin Beer Kabushiki Kaisha, priority 1999, dated 2006).
# Like-named read-outs stand apart in the source and are kept apart here.
# Legend:
# PDGF-Ra = target: T1, PDGF-Ra (Homo sapiens, UniProt P16234); assay: Inhibitory activity against PDGF-Ra phosphorylation by PDGF-AA stimulation using G292; type: cell-based; conditions: > means inhibition at indicated concentration not more than 50%, < and << not less than 50%, read-out: PDGF (E) IC50
# T1 construct: host or cells: G-292 human osteosarcoma cells
# T1 sequence (P16234 24-1089): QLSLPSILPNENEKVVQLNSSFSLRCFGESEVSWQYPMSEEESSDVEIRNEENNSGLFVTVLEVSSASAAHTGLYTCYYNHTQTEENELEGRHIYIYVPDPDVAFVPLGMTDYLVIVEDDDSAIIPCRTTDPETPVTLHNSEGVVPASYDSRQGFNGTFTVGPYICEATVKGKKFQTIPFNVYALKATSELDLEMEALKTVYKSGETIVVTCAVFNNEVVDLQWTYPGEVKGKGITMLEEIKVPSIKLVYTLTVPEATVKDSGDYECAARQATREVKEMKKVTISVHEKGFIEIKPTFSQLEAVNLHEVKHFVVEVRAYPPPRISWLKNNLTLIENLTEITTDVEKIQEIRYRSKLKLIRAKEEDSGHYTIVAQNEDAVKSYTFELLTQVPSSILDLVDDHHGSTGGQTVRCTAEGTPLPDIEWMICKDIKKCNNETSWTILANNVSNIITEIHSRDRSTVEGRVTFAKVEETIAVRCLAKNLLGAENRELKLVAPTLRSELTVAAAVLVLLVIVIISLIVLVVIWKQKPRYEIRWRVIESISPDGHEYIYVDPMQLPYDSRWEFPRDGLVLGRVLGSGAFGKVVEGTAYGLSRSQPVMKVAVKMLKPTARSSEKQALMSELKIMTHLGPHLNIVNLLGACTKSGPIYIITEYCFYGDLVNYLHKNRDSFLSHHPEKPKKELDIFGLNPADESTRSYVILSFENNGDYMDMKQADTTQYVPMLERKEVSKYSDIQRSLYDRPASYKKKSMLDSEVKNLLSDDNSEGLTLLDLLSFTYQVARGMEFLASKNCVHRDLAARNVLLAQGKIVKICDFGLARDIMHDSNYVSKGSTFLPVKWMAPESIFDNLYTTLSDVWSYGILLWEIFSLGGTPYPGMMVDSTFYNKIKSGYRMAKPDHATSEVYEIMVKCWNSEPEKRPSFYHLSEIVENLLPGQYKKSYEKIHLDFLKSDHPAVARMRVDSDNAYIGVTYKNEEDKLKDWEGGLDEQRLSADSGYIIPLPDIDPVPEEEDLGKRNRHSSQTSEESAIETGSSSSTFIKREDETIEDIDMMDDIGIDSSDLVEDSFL
# Outline: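 Read-out: A450 from a sandwich ELISA (PY-20 capture, anti-PDGF-Ra detection, peroxidase colour) of lysates from G-292 cells given compound for 1 hr at 37 °C before a 5 min challenge with PDGF-AA at 50 ng/ml.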
# human KDR = target: T2, human KDR (Homo sapiens, UniProt P35968); assay: Inhibitory activity against KDR phosphorylation (NIH 3T3 cells transfected with human KDR, VEGF); type: cell-based; conditions: VEGF 100 ng/ml
# T2 construct: expressed in transfected cells; host or cells: NIH 3T3 cells
# T2 sequence (P35968 20-1356): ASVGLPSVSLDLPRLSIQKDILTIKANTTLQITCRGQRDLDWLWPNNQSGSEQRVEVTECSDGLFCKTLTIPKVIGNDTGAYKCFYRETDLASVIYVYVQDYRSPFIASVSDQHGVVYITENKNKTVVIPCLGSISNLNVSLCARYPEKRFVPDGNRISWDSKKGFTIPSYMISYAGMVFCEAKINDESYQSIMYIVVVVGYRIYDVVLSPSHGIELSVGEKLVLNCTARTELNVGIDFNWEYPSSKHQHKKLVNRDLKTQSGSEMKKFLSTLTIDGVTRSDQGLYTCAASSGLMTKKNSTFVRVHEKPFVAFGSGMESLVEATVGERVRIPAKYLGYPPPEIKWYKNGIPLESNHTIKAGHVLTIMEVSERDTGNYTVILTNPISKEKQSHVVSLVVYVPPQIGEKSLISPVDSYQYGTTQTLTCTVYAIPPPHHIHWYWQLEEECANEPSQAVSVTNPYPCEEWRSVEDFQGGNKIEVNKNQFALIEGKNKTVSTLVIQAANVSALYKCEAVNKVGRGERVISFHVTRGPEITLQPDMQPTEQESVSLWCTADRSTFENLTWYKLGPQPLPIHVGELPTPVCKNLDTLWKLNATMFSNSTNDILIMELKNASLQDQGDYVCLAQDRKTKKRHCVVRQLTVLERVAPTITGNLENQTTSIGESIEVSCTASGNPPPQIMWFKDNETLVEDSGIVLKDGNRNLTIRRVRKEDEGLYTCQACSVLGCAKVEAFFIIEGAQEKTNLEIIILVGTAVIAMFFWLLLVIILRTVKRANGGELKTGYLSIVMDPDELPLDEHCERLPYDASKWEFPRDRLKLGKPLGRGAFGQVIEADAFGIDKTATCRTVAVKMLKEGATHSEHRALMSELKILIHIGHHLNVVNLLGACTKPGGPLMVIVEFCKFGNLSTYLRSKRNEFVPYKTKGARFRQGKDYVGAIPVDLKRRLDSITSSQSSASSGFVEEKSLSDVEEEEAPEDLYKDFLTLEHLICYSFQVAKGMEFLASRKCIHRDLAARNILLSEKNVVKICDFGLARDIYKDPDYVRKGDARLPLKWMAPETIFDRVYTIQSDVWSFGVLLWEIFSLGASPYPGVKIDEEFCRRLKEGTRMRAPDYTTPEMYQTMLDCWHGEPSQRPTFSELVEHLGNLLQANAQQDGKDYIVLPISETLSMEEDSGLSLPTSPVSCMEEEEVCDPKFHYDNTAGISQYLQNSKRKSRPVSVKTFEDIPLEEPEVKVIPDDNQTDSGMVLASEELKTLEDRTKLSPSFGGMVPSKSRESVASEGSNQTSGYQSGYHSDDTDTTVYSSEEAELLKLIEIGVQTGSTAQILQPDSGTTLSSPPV
# Procedure: Measurement of Inhibitory Activity Against KDR Phosphorylation
# NIH 3T3 cells (Sawano A et al., Cell Growth & Differentiation, 7, 213–221 (1996)) prepared by transfection of human KDR were cultured in a DMEM medium containing 10% FBS (GIBCO BRL) within a 5% carbon dioxide incubator until 50 to 70% confluent. The harvested cells were inoculated into wells of a collagen-type one-coat 96-well flat-bottom plate, each containing the same medium, in an amount of 1.5×10^4 per well, followed by cultivation at 37° C. overnight. The medium was then replaced by a DMEM medium containing 0.1% FBS. A solution of a test compound in dimethyl sulfoxide was added to each well, and the cultivation was carried out at 37° C. for additional one hr. A human recombinant vascular endothelial growth factor (hereinafter abbreviated to “VEGF”) was added to a concentration of 100 ng/ml, and the stimulation of cells was carried out at 37° C. for 2 min. The medium was removed, the cells were washed with phosphate buffered saline (pH 7.4), and 50 μl of a solubilization buffer (20 mM HEPES (pH 7.4), 150 mM NaCl, 0.2% Triton X-100, 10% glycerol, 5 mM sodium orthovanadylate, 5 mM disodium ethylenediaminetetraacetate, and 2 mM Na4P2O7) was then added thereto. The mixture was shaken at 4° C. for 2 hr to prepare a cell extract.
# An anti-phospho-tyrosine antibody (PY20; Transduction Laboratories) was immobilized on a microplate for ELISA (Maxisorp; NUNC), and the whole quantity of the cell extract was transferred to the wells, and the immobilized antibody was reacted with the phosphorylated protein at 4° C. overnight. After washing, an anti-KDR antibody (Santa Cruz) was allowed to react at room temperature for one hr, and, further, after washing, a peroxidase-labeled anti-rabbit Ig antibody (Amersham) was allowed to react at room temperature for one hr. After washing, a chromophoric substrate for peroxidase (Sumitomo Bakelite Co., Ltd.) was added thereto and was allowed to react at room temperature. After a suitable level of color development, a reaction termination solution was added to stop the reaction, and the absorbance at 450 nm was measured with a microplate reader. The KDR phosphorylation activity for each well was determined by presuming the absorbance with the addition of VEGF and without the addition of the medicament to be 100% KDR phosphorylation activity and the absorbance without the medicament and VEGF to be 0% KDR phosphorylation activity.
# The concentration of the test compound was varied on several levels, the inhibition (%) of KDR phosphorylation was determined for each case, and the concentration of the test compound necessary for inhibiting 50% of KDR phosphorylation (IC50) was calculated.
# c-kit = target: T3, c-kit (Homo sapiens, UniProt P10721); assay: Inhibitory activity against c-kit autophosphorylation (MO7e cells, h-SCF); type: cell-based; conditions: for IC50: MO7e cells, read-out: c-kit IC50; for inhibition at 1 µM: Mo7e, figure within parentheses in −( ) or >1000( ), at 1000 nM
# T3 construct: MO7e (human megakaryocytic leukemia cell line) which had been arrested for 20 hr; endogenous in cells; host or cells: MO7e human megakaryocytic leukemia cell line
# T3 sequence (P10721 26-976): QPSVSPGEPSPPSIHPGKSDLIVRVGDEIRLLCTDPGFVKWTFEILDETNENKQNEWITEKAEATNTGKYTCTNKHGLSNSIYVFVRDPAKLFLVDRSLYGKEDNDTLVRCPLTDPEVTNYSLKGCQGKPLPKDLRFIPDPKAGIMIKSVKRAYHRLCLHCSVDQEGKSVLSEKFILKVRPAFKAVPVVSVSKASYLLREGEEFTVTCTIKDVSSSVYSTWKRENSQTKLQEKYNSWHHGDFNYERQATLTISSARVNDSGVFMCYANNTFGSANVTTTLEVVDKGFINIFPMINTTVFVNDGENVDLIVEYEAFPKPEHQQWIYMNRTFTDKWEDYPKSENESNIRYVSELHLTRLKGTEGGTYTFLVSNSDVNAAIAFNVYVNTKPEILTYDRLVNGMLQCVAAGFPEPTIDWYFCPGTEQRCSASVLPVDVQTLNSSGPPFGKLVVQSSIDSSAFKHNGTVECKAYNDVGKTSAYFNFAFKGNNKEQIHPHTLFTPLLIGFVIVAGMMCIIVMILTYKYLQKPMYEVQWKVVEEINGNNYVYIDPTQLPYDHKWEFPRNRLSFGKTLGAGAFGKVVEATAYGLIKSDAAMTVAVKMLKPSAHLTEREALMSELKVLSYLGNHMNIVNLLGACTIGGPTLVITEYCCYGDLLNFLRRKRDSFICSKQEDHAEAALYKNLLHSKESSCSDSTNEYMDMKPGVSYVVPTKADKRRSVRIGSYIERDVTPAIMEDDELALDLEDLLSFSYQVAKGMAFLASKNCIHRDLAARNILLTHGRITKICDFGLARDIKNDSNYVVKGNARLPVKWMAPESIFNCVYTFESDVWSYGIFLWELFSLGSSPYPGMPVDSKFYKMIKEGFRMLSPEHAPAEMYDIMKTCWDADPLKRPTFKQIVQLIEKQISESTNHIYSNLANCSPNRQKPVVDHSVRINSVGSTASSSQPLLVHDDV
# Outline: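 In this cellular autophosphorylation assay, compound-treated MO7e cells (1 hr) were challenged with human stem cell factor at 50 ng/ml for 5 min; detection relied on PY-20 capture and anti-c-kit/HRP immunodetection at 450 nm.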
# [1] = test system: neointima of balloon-injured left carotid artery; assay: Rat carotid balloon injury model; type: in vivo; conditions: po, 336 h, in vivo, orally twice a day for 2 weeks, Wistar male rats, read-out: I/M ratio, inhibition (%)
# Procedure: Rat Carotid Balloon Injury Model
# Wistar male rats ([…]) were anesthetized with pentobarbital anesthesia, the right femoral region was incised from the rats, a Fogaty 2F catheter was inserted through the right femoral artery and was led to the left carotid artery, and abrasion was made three times with an expansion diameter of 2.5 mm.
# The test compound was suspended in 1% cremophore, and the suspension was orally administered at 0.4 ml/100 g B.W. twice a day through an oral probe for rats for 2 weeks from the day before an operation. On the second week after the operation, the rats were sacrificed by ether. The left carotid artery was removed and was fixed in buffered formalin. Sliced preparations embedded in paraffin were stained with HE and were subjected to image analysis for the measurement of the neointima area (I) and media area (M) in the section of injured blood vessal. I/M was calculated as an index for the evaluation of drug efficacy.
# [2] = test system: intima of balloon-injured coronary vessel; assay: Porcine coronary balloon injury model; type: in vivo; conditions: 10 mg/kg orally twice a day for 28 days, gelatin capsule, shoats
# Procedure: Porcine Coronary Balloon Injury Model Edible shoats (24 to 31 kg) were anesthetized with telazol and xylazine, a balloon catheter was inserted through the femoral artery, and the descending branch in front of the heart on the left and the right rotator branch were injured under vasographing. For 28 days from the operation, the compound of Example 679 was orally administered as a gelatin capsule at a dose of 10 mg/kg twice a day. Further, only a gelatin capsule was administered as a control. In the test, each group consisted of 6 shoats. On the 28th day from the operation, the shoats were sacrificed with pentobarbital and were perfused with buffered formalin, and the heart was then removed. Paraffin embedded preparations of the injured blood vessel portion were sliced and stained with HE, followed by image analysis to measure the intima area (IA), media area (MA), and vessel area (VA), and the fissure length (FL) and vessel perimeter (VP) of the inner elastic plate. IA/MA and (IA/VA)/(FL/VP) were calculated as an index for the evaluation of drug efficacy.
compound,measurement,setting,value
"COc1cc2nccc(Oc3ccc(NC(=S)NC(=O)Cc4ccccc4)cc3F)c2cc1OC [Example 615, N-{4-[(6,7-Dimethoxy-4-quinolyl)oxy]-3-fluorophenyl}-N′-(2-phenylacetyl)thiourea]",IC50,PDGF-Ra,17 nM
same,IC50,human KDR,37 nM
same,IC50,c-kit; 50 ng/ml h-SCF,125 nM
same,inhibition in vivo at 30 mg/kg,[1],43%
"CCN(CC)CCNC(=O)Nc1ccc(Oc2ccnc3cc(OC)c(OC)cc23)cc1 [Example 622, N-[2-(Diethylamino)ethyl]-N′-{4-[(6,7-dimethoxy-4-quinolyl)oxy]phenyl}urea]",IC50,PDGF-Ra,11 nM
same,IC50,human KDR,> 1000 nM
same,IC50,c-kit; 50 ng/ml h-SCF,355 nM
same,inhibition in vivo at 30 mg/kg,[1],38%
"COc1cc2nccc(Oc3ccc(NC(=O)NC4CCN(Cc5ccccc5)CC4)cc3)c2cc1OC [Example 590, N-{4-[(6,7-Dimethoxy-4-quinolyl)oxy]phenyl}-N′-[4-(N-benzyl)piperidinyl]urea]",IC50,PDGF-Ra,54 nM
same,IC50,human KDR,> 1000 nM
same,IC50,c-kit; 50 ng/ml h-SCF,296 nM
same,inhibition in vivo at 30 mg/kg,[1],86%
"COc1cc2ncnc(Oc3ccc(NC(=O)NCCN4CCCCC4)c([N+](=O)[O-])c3)c2cc1OC [Example 679, N-{4-[(6,7-Dimethoxy-4-quinazolinyl)oxy]-2-nitrophenyl}-N′-(2-piperidinoethyl)urea]",IC50,PDGF-Ra,< 10 nM
same,IC50,human KDR,323 nM
same,(IA/VA)/(FL/VP) inhibition (%),[2],47 (p < 0.001) %
same,IA/MA inhibition (%),[2],36 (p < 0.05) %
same,IC50,c-kit; 50 ng/ml h-SCF,337 nM
same,inhibition in vivo at 10 mg/kg,[1],54%
"CCN(CC)CCNC(=O)Nc1ccc(Oc2ncnc3cc(OC)c(OC)cc23)cc1[N+](=O)[O-] [Example 647, N-[2-(Diethylamino)ethyl]-N′-{4-[(6,7-dimethoxy-4-quinazolinyl)oxy]-2-nitrophenyl}urea]",IC50,PDGF-Ra,13 nM
same,IC50,human KDR,599 nM
same,IC50,c-kit; 50 ng/ml h-SCF,712 nM
same,inhibition in vivo at 10 mg/kg,[1],32%
"CCN(CC)CCNC(=S)Nc1ccc(Oc2ncnc3cc(OC)c(OC)cc23)cc1 [Example 516, N-{4-[(6,7-Dimethoxy-4-quinazolinyl)oxy]phenyl}-N′-(2-diethylaminoethyl)thiourea]",IC50,PDGF-Ra,50 nM
same,IC50,human KDR,> 1000 nM
same,inhibition at 1 µM,c-kit,27%
same,inhibition in vivo at 30 mg/kg,[1],32%
"CCCCN(CCCC)CCNC(=O)Nc1ccc(Oc2ncnc3cc(OC)c(OC)cc23)cc1[N+](=O)[O-] [Example 687, N-[2-(Dibutylamino)ethyl]-N′-{4-[(6,7-dimethoxy-4-quinazolinyl)oxy]-2-nitrophenyl}urea]",IC50,PDGF-Ra,26 nM
same,IC50,human KDR,176 nM
same,inhibition at 1 µM,c-kit,34%
same,inhibition in vivo at 10 mg/kg,[1],17%
"COc1cc2ncnc(Oc3ccc(NC(=O)N[C@H]4CCN(Cc5ccccc5)C4)cc3)c2cc1OC [Example 567, N-[(3S)-1-Benzyltetrahydro-1H-3-pyrrolyl]-N′-{4-[(6,7-dimethoxy-4-quinazolinyl)oxy]phenyl}urea]",IC50,PDGF-Ra,21 nM
same,IC50,human KDR,> 1000 nM
same,IC50,c-kit; 50 ng/ml h-SCF,118 nM
same,inhibition in vivo at 10 mg/kg,[1],24%
"COc1cc2nccc(Oc3cc(C)c(NC(=O)OC4CCCCCC4)cc3C)c2cc1OC [Example 287, Cycloheptyl N-{4-[(6,7-dimethoxy-4-quinolyl)oxy]-2,5-dimethylphenyl}carbamate]",IC50,PDGF-Ra; Pharmacological Test Example 1,13 nM
same,IC50,human KDR,> 1000 nM
same,IC50,c-kit; h-SCF 50 ng/ml,228 nM
same,inhibition in vivo at 30 mg/kg,[1],37%
"C#CCC(CC)OC(=O)Nc1ccc(Oc2ccnc3cc(OC)c(OC)cc23)cc1 (stereo not shown) [Example 408, 1-Ethyl-3-butynyl N-{4-[(6,7-dimethoxy-4-quinolyl)oxy]phenyl}carbamate]",IC50,PDGF-Ra,< 10 nM
same,IC50,human KDR,108 nM
same,IC50,c-kit; 50 ng/ml h-SCF,192 nM
same,inhibition in vivo at 30 mg/kg,[1],50%
"COc1cc2nccc(Oc3ccc(NC(=O)OCCCN4CCOCC4)cc3)c2cc1OC [Example 421, 3-Morpholinopropyl N-{4-[(6,7-dimethoxy-4-quinolyl)oxy]phenyl}carbamate]",IC50,PDGF-Ra,< 10 nM
same,IC50,human KDR,692 nM
same,IC50,c-kit; 50 ng/ml h-SCF,34 nM
same,inhibition in vivo at 30 mg/kg,[1],42%
